Reference: patent US8709718B1, “Method of treating lung cancer” (Max-Planck-Gesellschaft zur Forderung der Wissenschaften …, priority 2011, dated 2014)

How the values were obtained:
[1] = tested on: FGFR1-amplified lung cancer cells expressing FGFR1^V561M; details: 0.5 μM and 1.0 μM
Description: The V561M mutation was introduced into FGFR1 cloned in pBABE-Puro by site-directed mutagenesis. Replication-incompetent retroviruses were produced by contransfection with the pCL-ampho plasmid in HEK 293T cells. Hairpin shRNA targeting the different genes were ordered from Sigma. Replication-incompetent lentiviruses were produced from pLKO.1-Puro based vectors by contransfection with Δ8.9 and pMGD2 in 293T cells as described previously (Sos et al., Cancer Res 70, 868-874 (2010)). After transduction cells were selected with puromycin (1.5 μg/ml) and five days after selection cells were counted using trypan blue.

[2] = tested on: phospho-ERK, phospho-AKT in FGFR1-amplified tumors; experiment: Immunohistochemical staining of explanted tumors; assay type: in vivo, mice; details: end of treatment
Description: Mice bearing FGFR1-amplified tumors were sacrificed at the end of treatment. Tumors were exgrafted and embedded in paraffin. […] Antibodies recognizing pAKT, pERK, AKT and ERK were obtained from Cell signaling.

[3] = tested on: H1975 (FGFR1 wild type) cells; experiment: Xenograft mouse model, EGFR-mutant H1975 cells; assay type: in vivo, mice; details: xenografted EGFR-mutant H1975 cells
Description: (§1) All animal procedures were approved by the local animal protection committee and the local authorities. 5*10^6 tumor cells were injected subcutaneously into male nude mice.

[4] = tested on: PDGFRA- and FGFR1-amplified cell line H1703; details: 96 h of compound treatment, increasing concentrations
Description: Viability was determined after 96 hours by measuring cellular ATP content (CellTiter-Glo, Promega). Half-maximal inhibitory concentrations (GI50) were determined using the statistical data analysis software “R” with the package “ic50”.

[5] = tested on: 83 lung cancer cell lines; experiment: Cell-line screening, viability by cellular ATP content (CellTiter-Glo); assay type: cell-based
[6] = tested on: lung cancer cells carrying amplified FGFR1; experiment: Apoptosis by Annexin V/PI flow cytometry; assay type: cell-based; details: 1.0 μM, 72 hours, versus DMSO; specifically in FGFR1-amplified cells; p=0.008
Description: Finally the cells were analyzed on a FACS Canto FlowCytometer (BD Biosciences).

[7] = tested on: FGFR1-amplified cell lines; experiment: Soft-agar colony formation assay; assay type: cell-based; details: FGFR1-amplified cells
Description: Cells were suspended in growth media containing 10% FCS and 0.6% agar and plated in triplicate on 50 μl solidified growth medium (10% FCS; 1.0% agar). Growth medium containing indicated compound concentrations was added on top. Colonies were analyzed using the Scanalyzer imaging system (Lemnatec, Germany).

[8] = tested on: EGFR-mutant cell line HCC827; experiment: Immunoblotting of phosphorylated FGFR and downstream molecules; assay type: cell-based
Description: (§2) The following antibodies were used for immunoblotting: β-actin (MPBioscience), phospho-FGFR(Y653, Y654), pFRS2 (Tyr196), p-AKT (S473), pS6, S6, AKT, p-ERK, ERK (Cell Signaling Technology), total-FGFR1 (Santa Cruz), anti-rabbit-HRP, anti-mouse-HRP-antibody (Millipore).

[9] = tested on: FGFR1-amplified cells (H1581, H520); experiment: as above; assay type: cell-based
Description: as §2

[10] = target: FGFR1 (Homo sapiens, UniProt P11362); details: FGFR1 one of only two of 105 kinases
Chain of FGFR1 (P11362 22-822): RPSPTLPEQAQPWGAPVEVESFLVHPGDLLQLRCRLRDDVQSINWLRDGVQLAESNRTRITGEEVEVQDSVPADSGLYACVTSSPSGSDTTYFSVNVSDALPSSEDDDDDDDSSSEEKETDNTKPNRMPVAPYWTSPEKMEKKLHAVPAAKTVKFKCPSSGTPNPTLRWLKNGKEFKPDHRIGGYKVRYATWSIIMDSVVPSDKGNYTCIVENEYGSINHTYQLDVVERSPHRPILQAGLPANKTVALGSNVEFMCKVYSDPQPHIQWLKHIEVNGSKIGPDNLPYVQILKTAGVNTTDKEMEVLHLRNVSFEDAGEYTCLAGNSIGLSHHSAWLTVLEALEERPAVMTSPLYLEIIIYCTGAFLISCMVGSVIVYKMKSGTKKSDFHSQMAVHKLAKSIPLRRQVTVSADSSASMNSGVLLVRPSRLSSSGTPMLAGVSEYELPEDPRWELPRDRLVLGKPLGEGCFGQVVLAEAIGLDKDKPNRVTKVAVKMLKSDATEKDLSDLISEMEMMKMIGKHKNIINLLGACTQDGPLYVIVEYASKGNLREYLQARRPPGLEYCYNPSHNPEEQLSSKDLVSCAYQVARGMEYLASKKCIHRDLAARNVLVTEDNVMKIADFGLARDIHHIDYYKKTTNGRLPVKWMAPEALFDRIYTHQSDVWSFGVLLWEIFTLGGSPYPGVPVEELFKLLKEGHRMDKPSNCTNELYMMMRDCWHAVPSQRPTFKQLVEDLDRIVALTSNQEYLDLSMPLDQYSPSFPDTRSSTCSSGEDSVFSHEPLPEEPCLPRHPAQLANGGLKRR

[11] = tested on: FGFR1 amplified cell line H520; experiment: FGFR1 phosphorylation by immunoprecipitation; assay type: cell-based; details: H520, 1 μM
Description: For the detection of FGFR1 phosphorylation, whole-cell lysates (0.5-1 mg) in NP40 lysis buffer was incubated with agarose A/G Plus preconjugated with the FGFR1 antibody. Immunoprecipitates were washed in NP40 lysis buffer, boiled in sample buffer, and subjected to SDS-PAGE followed by immunoblotting using an anti phospho-tyrosine residues antibody to detect specific phosphorylation of FGFR1.

[12] = tested on: H1581 cells; experiment: Xenograft mouse model, FGFR1-amplified H1581 cells; assay type: in vivo; details: 100 mg/kg twice a day, oral gavage, mice engrafted with FGFR1-amplified cells
Description: as §1

[13] = Pharmacokinetics of PD173074 in mice; assay type: in vivo
Description: Pharmacokinetic data were created by taking blood-samples from male nude mice by puncture of the tail-vein under isoflurane anesthesia. […] All blood samples were centrifuged; the blood plasma-containing supernatant was extracted and stored at -20° C. Analytic samples were prepared from the blood plasma by acetonitrile extraction with an internal standard of 1 μM griseofulvin. […] Pharmacokinetic data was evaluated with WinNonlin Software (Pharsight).

SMILES: CCN(CC)CCCCNc1ncc2cc(-c3cc(OC)cc(OC)c3)c(NC(=O)NC(C)(C)C)nc2n1 [PD173074]
- cytotoxicity and dephosphorylation of FGFR on expression of FGFR1^V561M [1]: abolished
- levels of phospho-AKT in explanted tumors [2]: not of phospho-AKT
- levels of phospho-ERK in explanted tumors [2]: reduction in the levels of phospho-ERK
- tumor regression [3]: did not show signs of regression
- activity on viability of H1703 cells [4]: not active
- sensitivity of FGFR1-amplified cell line H520 ([5]; H520, derived from a squamous-cell lung cancer patient): sensitive
- GI50 ([5]; four of the 83 lung cancer cell lines tested, viability after 96 hours, read-out: half-maximal growth inhibitory concentration (GI50)): < 1000 nM
- growth inhibition ([5]; specifically in lung cancer cells carrying amplified FGFR1, p=0.0002): inhibited growth
- induction of apoptosis [6]: induced apoptosis
- colony formation in soft agar [7]: decreased colony formation
- levels of phosphorylated FGFR1 and FRS2 [8]: not in the EGFR-mutant cell line HCC827
- levels of phosphorylated FGFR1 [9]: reduced the levels of phosphorylated FGFR1
- phosphorylation of ERK [9]: inhibition of phosphorylation of ERK
- kinase inhibition [10]: strongly inhibited
- phosphorylation of FGFR1 (phosphotyrosine after immunoprecipitation) [11]: leads to dephosphorylation of FGFR1
- tumor size [12]: tumor shrinkage
- exposure ([13]; 50 mg/kg twice a day compared to 100 mg/kg twice a day): only a minimal exposure
- half-life in vivo ([13]; mice): short half-life
